In US20210205365A1, “Chimeric Growth Factor Receptors” (Instil Bio (UK) Ltd., priority 2018, published 2021):

Key:
primary human T-cells [1] = assay: Eltrombopag and IL-2 on CrGFR sorted (CD110+) primary human T-cells, up to 7 days; format: cell-based; settings: second donor (FIG. 12)
Description: (§1) FIG. 10—Analysis of Eltrombopag and IL-2 on CrGFR sorted primary human T-cells from Donor 4. Primary human T-cells from donor 4 were transduced with the WT TpoR or variant CrGFR, and enriched for expression by Miltenyi MACS technology selected for and incubated in the presence of IL2 or Eltrombopag. Cells were removed at time points up to 7 days and the number of cells expressing the receptor assessed using PE conjugated anti-CD110 antibodies, DRAQ7 viability dye and a MACSQuant analyser.
as §1, with “11—Analysis” for “10—Analysis”, “5.” for “4.”, “5” for “4”
as §1, with “12—Analysis” for “10—Analysis”, “6.” for “4.”, “6” for “4”
Paramagnetic bead sorts were conducted as per the manufacturers' instructions using either anti-PE microbeads (Miltenyi Biotec or StemCell Technologies), or T-cell isolation beads (17951: StemCell Technologies).
Next Applicants repeated the experiment but sorted the CrGFR+ cells using CD110+ selection by paramagnetic bead selection using the receptors identified from the first round of selections (FIGS. 10, 11 and 12). Applicants observed enhanced survival of T-cells engrafted with the majority of the CrGFR in all three donors. In particular Applicants saw expansion of WT-TpoR, TpOR.CD40, TpOR.IL2rγ and TpoR.LMP1-cyto cells in the second donor (FIG. 12) above that with media alone.

primary human T-cells [2] = assay: Eltrombopag and IL-2 on CrGFR transduced primary human T-cells, up to 21 days; format: cell-based; settings: after 21 days, x3 donors, Eltrombopag
Description: (§2) FIGS. 6A-6B—Analysis of Eltrombopag and IL-2 on primary human T-cells from Donor 1. Primary human T-cells from donor 1 were transduced with the WT TpoR or variant CrGFR and incubated in the presence of IL2 or Eltrombopag. Cells were removed at time points up to 21 days and the proportion of cells expressing the receptor assessed using PE conjugated anti-CD110 antibodies and a MACSQuant analyser.
as §2, with “FIGS. 7A-7B—Analysis” for “FIGS. 6A-6B—Analysis”, “Donor 2.” for “Donor 1.”, “donor 2” for “donor 1”
as §2, with “FIGS. 8A-8B—Analysis” for “FIGS. 6A-6B—Analysis”, “Donor 3.” for “Donor 1.”, “donor 3” for “donor 1”
FIGS. 9A-9B—Selection of optimal CrGFRs for next round of analysis. Flow cytometry plots showing expression of CrGFRs in ×3 donor primary human T-cells after 21 days incubation in Eltrombopag. The receptors TpoR.CD40, TpoR.IL2rγ, TpoR.ITAM1, TpoR.A60, TpoR.LMP1-cyto and TpoR.TpoR-cyto.LMP1-cyto were chosen for future comparison with the wt TpoR.
Peripheral blood mononuclear cells were isolated from normal healthy donors before activation for 24 hours with T-cell activation and expansion beads (Invitrogen) according to the manufacturer's instructions before addition of lentiviral supernatants.
Following expansion cells were washed excessively to remove any exogenous IL2 and plated into 96-well U-bottom plates. Cells were supplemented with IL2 (Proleukin) or Eltrombopag (Stratech Scientific, Suffolk, UK). At various time points thereafter cells were either stained with a 1:400 dilution of eFlor-450 fixable viability dye (eBioscience, UK) and counted directly from the wells using a MACSQuant Cytometer, or were stained with DRAQ7 viability dye plus phycoerythrin conjugated anti-CD110 antibodies (Miltenyi Biotec, UK) and analysed using a MACSQuant cytomter. Cell viability and/or transduction level was then analysed using MACSQuantify software (Miltenyi Biotec, UK).
Next Applicants took these receptors and expressed them in primary human T-cells and exposed these cells to IL-2 or Eltrombopag. Three donor primary human T-cell populations were isolated from buffy coats and transduced with the indicated lentiviral constructs in the presence of CD3/CD28 Dynabeads. Following expansion the cells were incubated with IL-2 or Eltrombopag. Applicants saw an increase in expansion/survival of T-cells with some of the receptors in some of the donors. […] This narrowed Applicants' panel of receptors to analyse further to: TpoR.CD40, TpOR.IL2rγ, TpoR.ITAM1, TpOR.LMP1-cyt, and TpoR.TpoR-cyt-LMP1-cyt.

phospho-STAT5 = assay: Induction of pSTAT5 in CrGFR expressing T-cells; format: cell-based, human; settings: CrGFR expressing T-cells from 4 donors treated for four hours
Description: FIG. 15—Induction of pSTAT by chimeric recombinant growth factor receptors. Primary human T-cells were isolated and transduced with the indicated CrGFR. Cells were enriched for CrGFR expression using Miltenyi MACS technology and expanded via polyclonal stimulation. The enriched cells were stimulated for 4 h with either media alone (RPMI), IL2, IL12, Tpo or Eltrombopag (Elt) before methanol fixation and intracellular staining with antibodies towards phospho-STAT5.
Finally, Applicants validated the signalling potential of the novel CrGFR by conducting phospho STAT analysis upon treatment of CrGFR expressing T-cells with media, cytokine or drug. To this end T-cells from 4 donors were transduced with either the wt TpoR, TpoR. CD40 or TpoR.IL2rγ, enriched for CrGFR expression using paramagnetic bead selection protocols and then expanded using polyclonal stimulation. The cells were treated for four hours with media alone (RPMI), IL-2, Tpo or Eltrombopag (Elt) before methanol fixation, permeabilization and analysis using pSTAT specific antibodies. STAT molecules are the key drivers of cell signalling upon cytokine activation of cells, pSTAT5 in particular is key to IL-2 activity.

Molecule | expansion of CrGFR cells above that with media alone (primary human T-cells [1]) | proportion of viable cells with a distinct population of CD110+ cells (primary human T-cells [2]) | induction of pSTAT5 by cytokine or drug (phospho-STAT5)
TpoR.LMP1-cyt: SEQ ID NO: 12; TpoR EC and TM domain fused to LMP-1 cytoplasmic domain | expansion | good proportion of viable cells with a distinct population of CD110+ cells | 
TpoR.TpoR-cyt-LMP1-cyt: SEQ ID NO: 11; TpoR with TpoR cytoplasmic domain fused to LMP-1 cytoplasmic domain |  | good proportion of viable cells with a distinct population of CD110+ cells | 
Tpo: thrombopoietin (Tpo), native ligand of TpoR |  |  | showed induction of STAT5 activity
TpoR.ITAM1: SEQ ID NO: 10; TpoR fused to ITAM1 cytoplasmic domain (protein, TpoR-ITAM1; MISC_FEATURE (1)..(491): TpoR Extracellular Domain; MISC_FEATURE (492)..(513): TpoR Transmembrane Domain; MISC_FEATURE (514)..(635): TpoR Cytoplasmic Domain; MISC_FEATURE (636)..(676): ITAM1 Cytoplasmic Domain) MPSWALFMVTSCLLLAPQNLAQVSSQDVSLLASDSEPLKCFSRTFEDLTCFWDEEEAAPSGTYQLLYAYPREKPRACPLSSQSMPHFGTRYVCQFPDQEEVRLFFPLHLWVKNVFLNQTRTQRVLFVDSVGLPAPPSIIKAMGGSQPGELQISWEEPAPEISDFLRYELRYGPRDPKNSTGPTVIQLIATETCCPALQRPHSASALDQSPCAQPTMPWQDGPKQTSPSREASALTAEGGSCLISGLQPGNSYWLQLRSEPDGISLGGSWGSWSLPVTVDLPGDAVALGLQCFTLDLKNVTCQWQQQDHASSQGFFYHSRARCCPRDRYPIWENCEEEEKTNPGLQTPQFSRCHFKSRNDSIIHILVEVTTAPGTVHSYLGSPFWIHQAVRLPTPNLHWREISSGHLELEWQHPSSWAAQETCYQLRYTGEGHQDWKVLEPPLGARGGTLELRPRSRYRLQLRARLNGPTYQGPWSSWSDPTRVETATETAWISLVTALHLVLGLSAVLGLLLLRWQFPAHYRRLRHALWPSLPDLHRVLGQYLRDTAALSPPKATVSDTCEEVEPSLLEILPKSSERTPLPLCSSQAQMDYRRLQPSCLGTMPLSVCPPMAESGSCCTTHIANHSYLPLSYWQQPRVKFSRSADAPAYQQGQNQLYNELNLGRREEYDVLDKRRGR |  | good proportion of viable cells with a distinct population of CD110+ cells | 
TpoR.Δ60: SEQ ID NO: 2; TpoR with C-terminal truncation of the cytoplasmic domain (protein, TpoR.delta60; MISC_FEATURE (1)..(491): TpoR Extracellular Domain; MISC_FEATURE (492)..(513): TpoR Transmembrane Domain; MISC_FEATURE (514)..(580): TpoR Cytoplasmic Domain with C-terminal Truncation) MPSWALFMVTSCLLLAPQNLAQVSSQDVSLLASDSEPLKCFSRTFEDLTCFWDEEEAAPSGTYQLLYAYPREKPRACPLSSQSMPHFGTRYVCQFPDQEEVRLFFPLHLWVKNVFLNQTRTQRVLFVDSVGLPAPPSIIKAMGGSQPGELQISWEEPAPEISDFLRYELRYGPRDPKNSTGPTVIQLIATETCCPALQRPHSASALDQSPCAQPTMPWQDGPKQTSPSREASALTAEGGSCLISGLQPGNSYWLQLRSEPDGISLGGSWGSWSLPVTVDLPGDAVALGLQCFTLDLKNVTCQWQQQDHASSQGFFYHSRARCCPRDRYPIWENCEEEEKTNPGLQTPQFSRCHFKSRNDSIIHILVEVTTAPGTVHSYLGSPFWIHQAVRLPTPNLHWREISSGHLELEWQHPSSWAAQETCYQLRYTGEGHQDWKVLEPPLGARGGTLELRPRSRYRLQLRARLNGPTYQGPWSSWSDPTRVETATETAWISLVTALHLVLGLSAVLGLLLLRWQFPAHYRRLRHALWPSLPDLHRVLGQYLRDTAALSPPKATVSDTCEEVEPSLLEILPKSSERTPL |  | looked good | 
IL-12: IL-12 as a control (protein, UniProt P29459 23-219; P29460 23-328, looked up) Interleukin-12 subunit alpha: RNLPVATPDPGMFPCLHHSQNLLRAVSNMLQKARQTLEFYPCTSEEIDHEDITKDKTSTVEACLPLELTKNESCLNSRETSFITNGSCLASRKTSFMMALCLSSIYEDLKMYQVEFKTMNAKLLMDPKRQIFLDQNMLAVIDELMQALNFNSETVPQKSSLEEPDFYKTKIKLCILLHAFRIRAVTIDRVMSYLNAS Interleukin-12 subunit beta: IWELKKDVYVVELDWYPDAPGEMVVLTCDTPEEDGITWTLDQSSEVLGSGKTLTIQVKEFGDAGQYTCHKGGEVLSHSLLLLHKKEDGIWSTDILKDQKEPKNKTFLRCEAKNYSGRFTCWWLTTISTDLTFSVKSSRGSSDPQGVTCGAATLSAERVRGDNKEYEYSVECQEDSACPAAEESLPIEVMVDAVHKLKYENYTSSFFIRDIIKPDPPKNLQLKPLKNSRQVEVSWEYPDTWSTPHSYFSLTFCVQVQGKSKREKKDRVFTDKTSATVICRKNASISVRAQDRYYSSSWSEWASVPCS |  |  | unable to induce STAT5 activation
